# Results reported in patent US20070111952A1, “Glycosylated triketide delta lactones” (priority 2003, published 2007).
# Tests used:
# [1] = test system: A. azollae vegetative cells; experiment: Azolla shoot apex bioassay: akinete differentiation of A. azollae / chlorosis of Azolla; assay type: cell-based, Anabaena azollae
# Method: Approximately 10 000 dried N. cornicina (36 g) were ground, suspended in 750 ml H2O, treated 60′ in a 100° C. water bath and centrifuged (14 000×g, 60′). The residue was re-suspended in 300 ml H2O, shacked 15′ and centrifuged (14 000×g, 60′). The two supernatants were grouped, filtered on Macherey-Nagel MN 615 paper and lyophilized. The dry residue (7 g) was suspended in 8 ml H2O, vortexed and centrifuged (7 800×g, 30′). Six ml of supernatant were filtered on acrodiscs 0.22 μm in four 1.5 ml batches, each filtrate being chromatographed on a 500 ml, 2.5 cm diameter Sephadex G 10 column (eluent: water; 3′/fraction, around 6 ml/fraction) The residue was suspended in 2 ml H2O, vortexed and centrifuged (7 800×g, 30′). Two ml of supernatant were filtered and chromatographed as above. This last procedure was repeated twice. Absorbance of each fraction was measured at 254 nm and bioassays were performed on 50 μl of each fraction from the seven chromatograms.
# Azolla is a small aquatic fern, which multiplies, most often vegetatively, at the surface of still water bodies, where it can form dense floating carpets. Anabaena azollae is the only known diazotrophic symbiont associated to a pteridophyte, Azolla and the only one linked to a plant throughout its life cycle. […]
# [2] = test system: A. azollae vegetative cells; experiment: Stability of the akinete-inducing activity (autoclaving, long storage); parameters: species or system Anabaena azollae
# Method: Extract of Nephrotoma cornicina (Linnaeus, 1758) (Tipulidae, Diptera) contains a glycosylated triketide lactone, here named cornicinine. The compound according to the invention is present in the head, thorax, abdomen, legs and wings of the insect, from both sexes.
# An Azolla shoot apex +/−3 mm long was excised and placed in a 2 ml Eppendorf tube filled with modified, N-free Hoagland solution to which was added the material to be tested. The culture was performed at 26° C. under constant light intensity of 110 μM. m^−2.sec^−1 and with daily adjustment of the liquid level with distilled water to compensate evapotranspiration. Activity was indicated by progressive chlorosis of Azolla, which appears after 5 days. Akinete differentiation can alternatively be followed by observation of leaf squashes under a light microscope, with first symptoms appearing after 48 hours of treatment.
substance,measurement,setting,value
cornicinine,concentration able to induce the differentiation of all the vegetative cells of A. azollae into akinetes,[1]; all vegetative cells into akinetes,nanomolar concentrations
same,activity on Azolla species,[1]; the seven generally recognised Azolla species,active
same,stability,[2],stable
